Data reported in PubChem BioAssay (NCI).
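Dose response: 5 concentrations. Exposure: 48 h. Format: 96-well plates. Endpoint: linear interpolation; highest concentration if not reached. GI50: concentration for 50% inhibition of growth. TGI denotes the concentration required for complete inhibition of growth.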

Assays:
Test in all cases: NCI anticancer screen, dose series, 48 h
[1] = system: MOLT-4 leukemia
[2] = system: T-47D breast
[3] = system: HCT-15 colon
[4] = system: CCRF-CEM leukemia
[5] = system: K-562 leukemia
[6] = system: HT29 colon
[7] = system: SF-295 CNS
[8] = system: SW-620 colon
[9] = system: NCI/ADR-RES ovarian
[10] = system: HOP-62 NSCLC
[11] = system: MALME-3M melanoma
[12] = system: SK-MEL-5 melanoma
[13] = system: RXF 393 renal
[14] = system: MDA-MB-435
[15] = system: SK-MEL-2 melanoma
[16] = system: KM12 colon
[17] = system: 786-0 renal
[18] = system: SR leukemia
[19] = system: M14 melanoma
[20] = system: SF-539 CNS
[21] = system: EKVX NSCLC
[22] = system: BT-549 breast
[23] = system: OVCAR-8 ovarian
[24] = system: NCI-H226 lung
[25] = system: SK-OV-3 ovarian
[26] = system: SK-MEL-28 melanoma
[27] = system: ACHN renal
[28] = system: UACC-257 melanoma

## O=C(c1ccc(Oc2ccccc2)cc1Cl)c1c[nH]c2ncnc(N[C@@H]3CC[C@@H](CO)OC3)c12
[1]
  GI50: 1510 nM
  TGI: 8.99 µM
[2]
  GI50: 908 nM
  TGI: 6.83 µM
[3]
  GI50: 885 nM
  TGI: 10.8 µM
[4]
  GI50: 3.21 µM
  TGI: 20.9 µM
[5]
  GI50: 432 nM
  TGI: > 36.3 µM
[6]
  GI50: 43.4 nM
  TGI: 1470 nM
[7]
  GI50: 2450 nM
  TGI: 15.3 µM
[8]
  GI50: 397 nM
  TGI: 11.6 µM
[9]
  GI50: 2300 nM
  TGI: 10.7 µM
[10]
  GI50: 302 nM
  TGI: 11 µM
[11]
  GI50: 16.1 nM
  TGI: 74.5 nM
[12]
  GI50: 771 nM
  TGI: 3.56 µM
[13]
  GI50: 748 nM
  TGI: 2770 nM
[14]
  GI50: 109 nM
  TGI: 10.8 µM
[15]
  GI50: 229 nM
  TGI: 876 nM
[16]
  GI50: 37.7 nM
  TGI: 2610 nM
[17]
  GI50: 1580 nM
  TGI: 9.35 µM
[18]
  GI50: 2630 nM
  TGI: 19.6 µM
[19]
  GI50: 21.3 nM
  TGI: 222 nM
[20]
  GI50: 1360 nM
  TGI: 4.85 µM
[21]
  GI50: 641 nM
  TGI: 9.42 µM
[22]
  GI50: 1660 nM
  TGI: 4.17 µM
[23]
  GI50: 1330 nM
  TGI: 11.2 µM
[24]
  GI50: 1470 nM
  TGI: 23.6 µM
[25]
  GI50: 351 nM
  TGI: 2090 nM
[26]
  GI50: 35 nM
  TGI: 465 nM
[27]
  GI50: 260 nM
  TGI: 10.5 µM
[28]
  GI50: 38.9 nM
  TGI: 395 nM
